Data on 3 compounds can be found in ChEMBL document CHEMBL5550154, “Novel biaryloxazolidinone derivatives with broad-spectrum antibacterial activity, favorable drug-like profiles and in vivo efficacy against linezolid-resistant Staphylococcusaureus” (Eur J Med Chem, 2024).

≈ marks a conversion by molar mass, not a printed value.

The nature of series [1]: Stability in simulated gastric acid assessed as compound remaining at pH 1.3 measured at 2 hrs. It counts as ADME. Conditions: read-out: Stability.
A short description of series [2]: Stability in simulated gastric acid assessed as compound remaining at pH 1.3 measured at 1.5 hrs. The class given is ADME. Conditions: read-out: Stability.
Series [3] can be described thus: Stability in simulated gastric acid assessed as compound remaining at pH 1.3 measured immediately. The class given is ADME. To be noted: read-out: Stability.
Series [4] in a line: Stability in simulated gastric acid assessed as compound remaining at pH 1.3 measured at 0.5 hrs. To be noted: read-out: Stability. The class given is ADME.
The test system of series [5] is Staphylococcus aureus. The series is described as follows: Antibacterial activity against Linezolid-resistant Staphylococcus aureus infected in systemic infection IG dosed SPF-kunming mouse model assessed as survival rate measured every day for 7 days. It counts as functional, organism-based. To be noted: dose 2.5-40 mg/kg, time 7.0 day.
The subject of series [6] is Staphylococcus aureus. The series is described as follows: Antibacterial activity against Linezolid-resistant Staphylococcus aureus infected in systemic infection SPF-kunming mouse model assessed as survival rate at 2.5 mg/kg, IG measured every day for 7 days. The class given is functional. To be noted: po, 168 h, time 7 day.
Series [7] deals with T1, Amine oxidase [flavin-containing] B (Homo sapiens, UniProt P27338).
T1 sequence (P27338 whole entry): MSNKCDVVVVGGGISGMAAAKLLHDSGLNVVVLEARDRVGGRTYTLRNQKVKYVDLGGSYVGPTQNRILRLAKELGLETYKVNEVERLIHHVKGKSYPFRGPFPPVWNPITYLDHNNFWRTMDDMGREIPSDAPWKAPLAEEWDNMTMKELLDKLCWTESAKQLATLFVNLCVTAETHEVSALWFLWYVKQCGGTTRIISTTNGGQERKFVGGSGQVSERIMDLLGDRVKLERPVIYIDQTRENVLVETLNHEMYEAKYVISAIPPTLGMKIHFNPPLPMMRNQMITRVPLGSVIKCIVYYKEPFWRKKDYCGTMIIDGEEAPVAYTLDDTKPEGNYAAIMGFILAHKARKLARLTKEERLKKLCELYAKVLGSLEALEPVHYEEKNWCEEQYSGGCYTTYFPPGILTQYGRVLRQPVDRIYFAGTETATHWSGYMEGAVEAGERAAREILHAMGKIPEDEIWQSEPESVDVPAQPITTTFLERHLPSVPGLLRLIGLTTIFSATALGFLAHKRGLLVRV
The series can be described thus: Inhibition of MAO-B (unknown origin) preincubated with compound for 15 mins followed by substrate addition and measured after 60 mins by luminescence based microplate reader analysis. The class given is toxicity.

Series [8] concerns Staphylococcus aureus. The series is described as follows: Antibacterial activity against vancomycin-resistant Staphylococcus aureus assessed as inhibition of bacterial growth. The class given is functional.
The test system of series [9] is Staphylococcus aureus. The series is described as follows: Antibacterial activity against methicillin-resistant Staphylococcus aureus assessed as inhibition of bacterial growth. The class given is functional.

Take `CC(C)N/N=C/c1ccc(-c2ccc(N3C[C@H](CO)OC3=O)cc2F)cn1`: the remaining at 2 h in series [1] was 87.1%. In series [2], the remaining at 1.5 h was 90.8%. For the same compound, the remaining at 0 h in series [3] is 100%. Besides, the remaining at 0.5 h in [4] was 96.7%.

On to `O=C1O[C@@H](CO)CN1c1ccc(-c2ccc(/C=N/N3CCOCC3)nc2)c(F)c1`, for which the Activity result in series [5] was “Dose-Dependent Effect”. For the same compound, the survival at 2.5 mg/kg in [6] was determined as 0%. Further, the 50% inhibitory concentration (IC50) in series [7] worked out at 34.8 µM.

Consider `CC(=O)NC[C@H]1CN(c2ccc(N3CCOCC3)c(F)c2)C(=O)O1` [LINEZOLID], for which the MIC in series [8] and in series [9] was 1 µg/mL (≈ 2.96 µM) in each case.
